# Tests used:
# giant foxtail = assay: Test B pre/postemergence giant foxtail; assay type: in vivo, Setaria faberii
# How it was run: (§1)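 Test chemicals in a non-phytotoxic solvent mixture with surfactant were sprayed preemergence onto planted seeds and postemergence onto plants 2 to 18 cm tall (1- to 4-leaf stage). After twelve to sixteen days in a greenhouse, injury was visually rated against untreated controls from 0 (no effect) to 10 (complete control).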
# purple nutsedge = assay: Test B pre/postemergence purple nutsedge; assay type: in vivo, Cyperus rotundus
# How it was run: as §1
# morningglory = assay: Test B pre/postemergence morningglory; assay type: in vivo, Ipomoea hederacea
# How it was run: as §1
# wild oat = assay: Test B pre/postemergence wild oat; assay type: in vivo, Avena fatua; conditions: for Plant response rating, Wild oats: Rate 250 g/ha
# How it was run: as §1
# crabgrass = assay: Test B pre/postemergence crabgrass; assay type: in vivo, Digitaria sanguinalis
# How it was run: as §1
# corn = assay: Test B pre/postemergence corn; assay type: in vivo, Zea mays
# How it was run: as §1
# wheat = assay: Test B pre/postemergence wheat; assay type: in vivo, Triticum aestivum; conditions: for Plant response rating, Wheat: Rate 250 g/ha
# How it was run: as §1
# rice = assay: Test B flood test rice; assay type: in vivo, Oryza sativa
# How it was run: (§2)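 Flood test on plants grown to the 2-leaf stage; treated plants kept in greenhouse twelve to sixteen days, then visually rated against controls on a 0 (no effect) to 10 (complete control) scale.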
# soybean = assay: Test B pre/postemergence soybean; assay type: in vivo, Glycine max
# How it was run: as §1
# pigweed = assay: Test B pre/postemergence pigweed; assay type: in vivo, Amaranthus retroflexus
# How it was run: as §1
# duck salad = assay: Test B flood test duck salad; assay type: in vivo, Heteranthera limosa
# How it was run: as §2
# rape = assay: Test B pre/postemergence rape; assay type: in vivo, Brassica napus
# How it was run: as §1
# cocklebur = assay: Test B pre/postemergence cocklebur; assay type: in vivo, Xanthium strumarium
# How it was run: as §1
# bamyardgrass = assay: Test B flood test barnyardgrass; assay type: in vivo, Echinochloa crus-galli
# How it was run: as §2
# sugar beet = assay: Test B pre/postemergence sugar beet; assay type: in vivo, Beta vulgaris; conditions: for Plant response rating, Sugarbeets: Rate 250 g/ha
# How it was run: as §1
# velvetleaf = assay: Test B pre/postemergence velvetleaf; assay type: in vivo, Abutilon theophrasti; conditions: for Plant response rating, Velvetleaf: Rate 250 g/ha
# How it was run: as §1
# [1] = Postemergence, Rate 62 g/ha, scale 0 to 10, 0 is no effect, 10 is complete control
# [2] = Postemergence, Rate 125 g/ha, scale of 0 to 10 where 0 is no effect and 10 is complete control
# [3] = Postemergence, Rate 250 g/ha, scale 0 to 10, 0 no effect, 10 complete control
# [4] = Preemergence, Rate 62 g/ha, scale 0 to 10 (0 no effect, 10 complete control)
# [5] = Preemergence, Rate 125 g/ha, scale 0 to 10 (0 no effect, 10 complete control)
# [6] = Preemergence, Rate 250 g/ha, scale of 0 to 10 where 0 is no effect and 10 is complete control
# [7] = Preemergence, Rate 500 g/ha, scale 0 (no effect) to 10 (complete control)
# [8] = Rate 500 g/ha, Postemergence, scale 0 to 10, 0 no effect, 10 complete control
# [9] = Preemergence, Rate 125 g/ha, 0 is no effect, 10 is complete control
# [10] = Preemergence, scale of 0 to 10 where 0 is no effect and 10 is complete control
# [11] = Postemergence, scale 0 to 10, 0 is no effect, 10 is complete control
# [12] = Postemergence (flood test species), Rate 125 g/ha, scale of 0 to 10 where 0 is no effect and 10 is complete control
# [13] = Rate 250 g/ha, headed Pre-emergence (flood test species), scale 0 to 10 (0 no effect, 10 complete control)
# [14] = Rate 500 g/ha, headed Pre-emergence (flood test species), scale 0 to 10 (0 no effect, 10 complete control)
# [15] = Rate 500 g/ha, listed under Postemergence (flood test species), scale 0 to 10, 0 no effect, 10 complete control
# [16] = Rate 1000 g/ha, Pre-emergence (as headed), scale 0 to 10
# [17] = Rate 2000 g/ha, Pre-emergence (as headed), scale 0 to 10
# [18] = Rate 250 g/ha, Postemergence, scale 0 to 10, 0 is no effect, 10 is complete control
# [19] = flood test, listed under Postemergence, Rate 250 g/ha, scale 0 to 10, 0 no effect, 10 complete control
compound,measurement,setting,value
C=CCn1c(=O)on(C(=O)N(c2ccccc2)C(C)C)c1=O [Compound 93],Giant foxtail plant response rating,giant foxtail; [1],6
same,Giant foxtail plant response rating,giant foxtail; [2],7
same,Giant foxtail plant response rating,giant foxtail; [3],9
same,Giant foxtail plant response rating,giant foxtail; [4],10
same,"Plant response rating, Giant foxtail",giant foxtail; [5],10
same,"Plant response rating, Giant foxtail",giant foxtail; [6],10
same,Giant foxtail plant response rating,giant foxtail; [7],10
same,Giant foxtail plant response rating,giant foxtail; [8],9
same,Nutsedge plant response rating,purple nutsedge; [1],0
same,Nutsedge plant response rating,purple nutsedge; [2],0
same,Nutsedge plant response rating,purple nutsedge; [3],0
same,Nutsedge plant response rating,purple nutsedge; [4],0
same,"Plant response rating, Nutsedge",purple nutsedge; [5],0
same,"Plant response rating, Nutsedge",purple nutsedge; [6],0
same,Nutsedge plant response rating,purple nutsedge; [8],3
same,Morningglory plant response rating,morningglory; [1],6
same,Morningglory plant response rating,morningglory; [2],10
same,Morningglory plant response rating,morningglory; [3],10
same,Morningglory plant response rating,morningglory; [4],0
same,"Plant response rating, Morningglory",morningglory; [5],0
same,"Plant response rating, Morningglory",morningglory; [6],3
same,Morningglory plant response rating,morningglory; [7],6
same,Morningglory plant response rating,morningglory; [8],10
same,Wild oats plant response rating,wild oat; [1],0
same,Wild oats plant response rating,wild oat; [2],0
same,Wild oats plant response rating,wild oat; [4],8
same,Wild oats plant response rating (0 to 10 scale),wild oat; [9],8
same,"Plant response rating, Wild oats",wild oat; [10],10
same,Wild oats plant response rating,wild oat; [7],10
same,"Plant response rating, Wild oats",wild oat; [11],2
same,Wild oats plant response rating,wild oat; [8],5
same,Crabgrass plant response rating,crabgrass; [1],7
same,Crabgrass plant response rating,crabgrass; [2],8
same,Crabgrass plant response rating,crabgrass; [3],9
same,Crabgrass plant response rating,crabgrass; [4],7
same,"Plant response rating, Crabgrass",crabgrass; [5],9
same,"Plant response rating, Crabgrass",crabgrass; [6],9
same,Crabgrass plant response rating,crabgrass; [7],10
same,Crabgrass plant response rating,crabgrass; [8],9
same,Corn plant response rating,corn; [1],3
same,Corn plant response rating,corn; [2],4
same,Corn plant response rating,corn; [3],5
same,Corn plant response rating,corn; [4],3
same,"Plant response rating, Corn",corn; [5],7
same,"Plant response rating, Corn",corn; [6],8
same,Corn plant response rating,corn; [7],9
same,Corn plant response rating,corn; [8],5
same,Wheat plant response rating,wheat; [1],0
same,Wheat plant response rating,wheat; [2],3
same,Wheat plant response rating,wheat; [4],3
same,Wheat plant response rating (0 to 10 scale),wheat; [9],3
same,"Plant response rating, Wheat",wheat; [10],6
same,Wheat plant response rating,wheat; [7],8
same,"Plant response rating, Wheat",wheat; [11],4
same,Wheat plant response rating,wheat; [8],5
same,Rice plant response rating,rice; [12],0
same,Rice plant response rating,rice; [1],0
same,"Plant response rating, Rice","rice; Rate 250 g/ha, Postemergence (flood test), scale 0 to 10, 0 is no effect, 10 is complete control",0
same,Rice plant response rating,rice; [13],0
same,"Plant response rating, Rice",rice; [14],0
same,Rice plant response rating,rice; [15],4
same,Rice plant response rating,rice; [16],0
same,Rice plant response rating,rice; [17],0
same,Soybean plant response rating,soybean; [1],4
same,Soybean plant response rating,soybean; [2],5
same,Soybean plant response rating,soybean; [4],0
same,"Plant response rating, Soybean",soybean; [5],2
same,"Plant response rating, Soybean",soybean; [6],7
same,Soybean plant response rating,soybean; [7],9
same,"Plant response rating, Soybean",soybean; [18],5
same,Soybean plant response rating,soybean; [8],7
same,Redroot pigweed plant response rating,pigweed; [1],2
same,Redroot pigweed plant response rating,pigweed; [2],4
same,Redroot pigweed plant response rating,pigweed; [4],9
same,"Plant response rating, Redroot pigweed",pigweed; [5],8
same,"Plant response rating, Redroot pigweed",pigweed; [6],10
same,Redroot pigweed plant response rating,pigweed; [7],10
same,"Plant response rating, Redroot pigweed",pigweed; [18],7
same,Redroot pigweed plant response rating,pigweed; [8],7
same,Ducksalad plant response rating,duck salad; [12],0
same,Ducksalad plant response rating,duck salad; [1],0
same,Ducksalad plant response rating,duck salad; [13],0
same,"Plant response rating, Ducksalad",duck salad; [14],0
same,Ducksalad plant response rating,duck salad; [15],0
same,Ducksalad plant response rating,duck salad; [16],0
same,Ducksalad plant response rating,duck salad; [17],0
same,Ducksalad plant response rating,duck salad; [19],0
same,Rape plant response rating,rape; [1],2
same,Rape plant response rating,rape; [2],3
same,Rape plant response rating,rape; [3],4
same,Rape plant response rating,rape; [4],3
same,"Plant response rating, Rape",rape; [5],7
same,"Plant response rating, Rape",rape; [6],8
same,Rape plant response rating,rape; [7],10
same,Rape plant response rating,rape; [8],5
same,Cocklebur plant response rating,cocklebur; [1],0
same,Cocklebur plant response rating,cocklebur; [2],1
same,Cocklebur plant response rating,cocklebur; [3],2
same,Cocklebur plant response rating,cocklebur; [4],2
same,"Plant response rating, Cocklebur",cocklebur; [5],2
same,Cocklebur plant response rating,cocklebur; [8],4
same,Barnyardgrass plant response rating,bamyardgrass; [1],0
same,Barnyardgrass plant response rating,"bamyardgrass; Rate 125 g/ha, Postemergence section (flood test species), scale 0 to 10, 0 no effect, 10 complete control",0
same,Barnyardgrass plant response rating,bamyardgrass; [13],0
same,"Plant response rating, Barnyardgrass",bamyardgrass; [14],0
same,Barnyardgrass plant response rating,bamyardgrass; [15],0
same,Barnyardgrass plant response rating,bamyardgrass; [16],0
same,Barnyardgrass plant response rating,"bamyardgrass; Rate 2000 g/ha, Pre-emergence (as headed), scale 0 to 10, 0 no effect, 10 complete control",0
same,Barnyardgrass plant response rating,bamyardgrass; [19],0
same,Sugarbeets plant response rating,sugar beet; [1],2
same,Sugarbeets plant response rating,sugar beet; [2],3
same,Sugarbeets plant response rating,sugar beet; [4],6
same,Sugarbeets plant response rating (0 to 10 scale),sugar beet; [9],7
same,"Plant response rating, Sugarbeets",sugar beet; [10],8
same,Sugarbeets plant response rating,sugar beet; [7],9
same,"Plant response rating, Sugarbeets",sugar beet; [11],3
same,Sugarbeets plant response rating,sugar beet; [8],5
same,Velvetleaf plant response rating,velvetleaf; [1],0
same,Velvetleaf plant response rating,velvetleaf; [2],0
same,Velvetleaf plant response rating,velvetleaf; [4],5
same,Velvetleaf plant response rating (0 to 10 scale),velvetleaf; [9],6
same,"Plant response rating, Velvetleaf",velvetleaf; [10],6
same,Velvetleaf plant response rating,velvetleaf; [7],10
same,"Plant response rating, Velvetleaf",velvetleaf; [11],0
same,Velvetleaf plant response rating,velvetleaf; [8],6
